Assay results published in PMC10967572, “Induction of Oxidative Stress and Ferroptosis in Triple-Negative Breast Cancer Cells by Niclosamide via Blockade of the Function and Expression of SLC38A5 and SLC7A11” (Antioxidants, 2024).
Counter-ions that a name gives are not always drawn. Residues, ends and D or L forms follow the SMILES beside them. *: point of attachment. Cbz = O=C(OCc1ccccc1)*; CH2F = FC*

How the values were obtained:
[1] = test system: MB231 cells and TXBR100 cells; assay: Cellular glutathione levels (GSH-Glo assay); assay type: cell-based, human; conditions: Homo sapiens; buthionine sulfoximine 100 μM; both cell lines (MB231, TXBR100)
Protocol: Control and niclosamide-treated cells were used for measurement of cellular glutathione levels as instructed in the manufacturer’s protocol (GSH-Glo assay, Promega, Madison, WI, USA). The levels of malondialdehyde were measured using lipid peroxidation kit [Lipid Peroxidation (MDA) Assay Kit (MAK085), Millipore-sigma, St. Louis, MO, USA].

SLC38A5 [2] = molecular target: SLC38A5 (Homo sapiens, UniProt Q8WUX1); assay: Inhibition of SLC38A5-mediated [3H]-serine uptake in TNBC cells; conditions: IC50 for the inhibition of SLC38A5-mediated serine uptake, serine 5 μM, LiCl buffer pH 8.5 with 5 mM tryptophan
Sequence of SLC38A5 (Homo sapiens, UniProt Q8WUX1) (Q8WUX1 whole entry): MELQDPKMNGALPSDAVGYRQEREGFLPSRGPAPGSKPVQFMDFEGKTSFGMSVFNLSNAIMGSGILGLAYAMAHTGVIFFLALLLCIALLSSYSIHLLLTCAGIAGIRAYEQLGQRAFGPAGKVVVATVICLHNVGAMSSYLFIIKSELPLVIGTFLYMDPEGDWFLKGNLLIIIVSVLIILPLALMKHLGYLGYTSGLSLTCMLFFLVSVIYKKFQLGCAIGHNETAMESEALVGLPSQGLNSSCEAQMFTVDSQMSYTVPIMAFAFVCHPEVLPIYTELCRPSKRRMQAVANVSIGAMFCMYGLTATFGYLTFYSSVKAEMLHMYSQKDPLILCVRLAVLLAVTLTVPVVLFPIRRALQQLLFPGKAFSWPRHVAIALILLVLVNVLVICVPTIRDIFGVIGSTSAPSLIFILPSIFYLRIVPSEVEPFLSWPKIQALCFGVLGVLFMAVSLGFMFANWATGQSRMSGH

SLC7A11 = SLC7A11 transport activity (glutamate uptake) after treatment of cells; assay type: cell-based, human; conditions: MB231, TXBR100 and MB453 cells treated before uptake
Protocol: The transport activity of SLC7A11 was calculated by subtracting the diffusional component from total uptake. […] Confluent cultures were used for uptake measurements.

Nrf2 = Nrf2 expression and subcellular localization (immunostaining, Western blot, qRT-PCR) in TNBC cells; assay type: cell-based, human; conditions: MB231 and TXBR100; 24 h; Se-Met 250 μM and 1 mM, monomethylfumarate 0.1 mM; immunostaining and Western blot
Protocol: (§1) Total RNA was extracted from cells using TRIzol Reagent (ThermoFisher Scientific, Waltham, MA, USA) and the RNA was reverse-transcribed using a high-capacity cDNA reverse transcription kit (ThermoFisher Scientific, Waltham, MA, USA) according to the manufacturer’s protocol. Quantitative RT-PCR was performed with Takara Taq Hot Start Version (TaKaRa Biotechnology, Shiga, Japan) or Power SYBR Green PCR master mix (Bio-Rad, Hercules, CA, USA). Primer sequences are shown in Supplemental Table S1. The relative mRNA expression was determined by the 2^−∆∆Ct method. Additionally, 18S was used as a housekeeping gene for normalization.
Cells and tumor tissues were lysed in Pierce™ RIPA buffer (ThermoFisher Scientific, Waltham, MA, USA) supplemented with Halt™ Protease and Phosphatase Inhibitor Cocktail (ThermoFisher Scientific, Waltham, MA, USA). Homogenates were centrifuged, and supernatants were used for protein measurement via Pierce™ BCA Protein Assay Kit (ThermoFisher Scientific, Waltham, MA, USA). […] Western blot samples were prepared in Laemmli sample buffer (Bio-Rad Laboratories, Hercules, CA, USA). They were loaded onto a SDS–PAGE gel and transferred onto a PVDF membrane (Bio-Rad Laboratories, Hercules, CA, USA). The membrane was blocked and antibodies diluted in 5% nonfat dry milk (Bio-Rad Laboratories, Hercules, CA, USA) or in 5% bovine serum albumin (Irvine Scientific, Santa Ana, CA, USA) were used. Protein bands were visualized using Pierce™ ECL Western Blotting Substrate (ThermoFisher Scientific, Waltham, MA, USA) and developed on the autoradiography film (Santa Cruz, Dallas, TX, USA). Primary antibodies were purchased either from Cell Signaling (Danvers, MA, USA) [anti-GPX4 (#52455), anti-FTH (#4393), anti-HSP60 (#12165), anti-phospho-p70S6K (#9205), anti-p70S6K (#2708)] or from Abcam (Waltham, MA, USA) [Nrf2 (#ab62352)]. Secondary antibody Horseradish peroxidase-conjugated goat anti-rabbit IgG (#1706515) was purchased from Bio-Rad Laboratories (Hercules, CA, USA). For quantification of protein levels by the densitometric analysis, the experiment was carried out in triplicate and the data were collected from the resultant three Western blots.

[3] = test system: TNBC cells (MB231 and TXBR100); assay: MTT cell proliferation / viability assay; assay type: cell-based, human; conditions: niclosamide 1 μM with inhibitor 10 μM (hydroxychloroquine 25 μM), 48 h
Protocol: Cells were seeded in 96-well plates; after 24 h, niclosamide treatment was initiated. Cells were then cultured for 72 h with fresh medium containing freshly prepared niclosamide supplied every 24 h. Cells were washed with phosphate-buffered saline twice followed by MTT reagent (ATCC). Treatment and lysis of the cells were done as per the manufacturer’s instructions. Absorbance of the lysate was measured at 550 nm. Cell viability assay with various cell-death inhibitors was also performed as described above. Cells were treated with niclosamide (1 µM) along with cell death inhibitors (10 µM), except hydroxychloroquine (25 µM) for 48 h.

[4] = test system: Nrf2 target genes (SLC7A11, HO-1, GCLC, GCLM); assay: qRT-PCR of Nrf2 target genes in TNBC cells; assay type: cell-based, human; conditions: MB231, TXBR100 and MB453, Se-Met 1 mM, 16 h
Protocol: as §1

[5] = test system: MB231 cells and TXBR100 cells; assay: Lipid radical (ferroptosis) assay with LipiRadical Green; assay type: cell-based, human; conditions: inhibitor 10 μM with niclosamide 5 μM; MB231 and TXBR100
Protocol: Lipid radical (ferroptosis) assay and iron assay were performed as follows. Cells were cultured on a 25 mm glass coverslip until they reached 60–70% confluency (~48 h). At the time of the experiment, cells were washed with NaCl buffer, pH 7.5 and then incubated with 1 µM of LipiRadical Green (a lipid radical detection reagent, FDV-0042, Funakoshi, Tokyo, Japan) or Ferro-orange (an iron detection probe, F374, Dojindo, Rockville, MD, USA) in NaCl buffer, pH 7.5 for 20 min and then washed with NaCl buffer, pH 7.5. To analyze the effects of modifiers of iron levels and lipid peroxidation, the cells were co-treated with the modifiers and the respective fluorescent probe for 20 min and then washed. The glass coverslip containing the cells was then probed under an inverted microscope. The fluorescence imaging was captured using a Nikon T1-E microscope with A1 confocal super-resolution module (Nikon, Dallas, TX, USA), with a 60× objective, at 488 nm. The images represent a maximum projection intensity derived from a Z-stack. The fluorescence quantification was performed by measuring the corrected total cell fluorescence (CTCF) using Image J (version: 2.14.0/1.54f) and the following formula; CTCF = (integrated density) − (area of cell of interest) × (mean fluorescence of background).

SLC38A5 [6] = test system: SLC38A5; parameters: method as in PMID 11243884, PMID 37812701; conditions: cited from earlier work

`CCCCS(=N)(=O)CCC(N)C(=O)O` (centres unmarked) [buthionine sulfoximine] showed an inhibition at 100 µM [1] of about 90%.

With `CSCC[C@H](N)C(=O)O` [methionine] the IC50 (SLC38A5 [2]; MB231 cells) was 518 µM, the IC50 (SLC38A5 [2]; TXBR100 cells) was 316 µM and the “transport activity of SLC7A11 (glutamate uptake) in treated cells” value (shortened to “transport activity of SLC7A11”) (SLC7A11) was “did not have any effect”. The “cellular levels and nuclear localization of Nrf2” value (Nrf2) was “did not have any noticeable effect”.

For `CCN(CCO)CCCC(C)Nc1ccnc2cc(Cl)ccc12` (centres unmarked) [hydroxychloroquine], the “effect of cell death inhibitor on cell viability in the presence of niclosamide” value (shortened to “effect of cell death inhibitor … of niclosamide”) [3] was “failed to promote cell viability”.

For `C[Se]CC[C@H](N)C(=O)O` [Se-Met, seleno-methionine], the IC50 (SLC38A5 [2]; MB231 cells) was 680 µM, the IC50 (SLC38A5 [2]; TXBR100 cells) was 453 µM and the “transport activity of SLC7A11” value (SLC7A11) was “increased substantially”. The “cellular levels and nuclear localization of Nrf2” value (Nrf2) was “increased” and the “mRNA levels for Nrf2 targets SLC7A11, HO-1, GCLC and GCLM” value [4] was “significant increase”.

In the case of `CN1C(=O)C(Cc2c[nH]c3ccccc23)NC1=S` (centres unmarked) [necrostatin, necrostatin-1], the “effect of cell death inhibitor on niclosamide-induced increase in lipid radical fluorescence” value [5] is reported as “did not have any effect” and the “effect of cell death inhibitor … of niclosamide” value [3] is reported as “failed to promote cell viability”.

For `COC(=O)/C=C/C(=O)O` [monomethylfumarate, monomethyl fumarate], the “transport activity of SLC7A11” value (SLC7A11) was “stimulatory effect” and the “cellular levels and nuclear localization of Nrf2” value (Nrf2) was “increased”.

In the case of `N[C@@H](CO)C(=O)O` [serine], the “Kt value for SLC38A5-mediated transport” value (SLC38A5 [6]) is given as 200 to 1300 µM.

For `COC(=O)C[C@H](NC(=O)[C@H](C)NC(=O)[C@@H](NC(=O)OCc1ccccc1)C(C)C)C(=O)CF` [ZVAD-fmk] (Cbz-Val-Ala-Asp(OMe)-CH2F), the “effect of cell death inhibitor on niclosamide-induced increase in lipid radical fluorescence” value [5] was “did not have any effect” and the “effect of cell death inhibitor … of niclosamide” value [3] was “failed to promote cell viability”.

In the case of `CCOC(=O)c1ccc(NC2CCCCC2)c(N)c1` [ferrostatin 1, ferrostatin-1], the “effect of cell death inhibitor on niclosamide-induced increase in lipid radical fluorescence” value [5] is reported as “blocked this increase” and the “effect of cell death inhibitor … of niclosamide” value [3] is reported as “improved cell viability”.
